Type in all cases: toxicity, cell-based
One data set has as its system HEK-293T. The data set is described as follows: Incucyte cell viability with HEK293T. The settings on record: human, 10 µM, compound concentration 10 uM.
The test system of the next data set is Fibroblast. The data set can be described thus: Incucyte cell viability with human fibroblast. As to conditions: 10 µM, compound concentration 10 uM.
The subject of a further data set is U2OS. The data set is described as follows: Incucyte cell viability with U2OS. As to conditions: human, 10 µM, compound concentration 10 uM.
Setting [1] is: 6 h, replicate number 1, timepoint 6 hours.
Setting [2] is: 6 h, replicate number 2, timepoint 6 hours.
[3] abbreviates: 12 h, replicate number 1, timepoint 12 hours.
Setting [4] is: 12 h, replicate number 2, timepoint 12 hours.
[5] abbreviates: 18 h, replicate number 1, timepoint 18 hours.
Setting [6] is: 18 h, replicate number 2, timepoint 18 hours.
Setting [7] is: 24 h, replicate number 1, timepoint 24 hours.
Where [8] appears, read: 24 h, replicate number 2, timepoint 24 hours.
[9] abbreviates: 0 h, replicate number 1, timepoint 0 hours.
[10] abbreviates: 0 h, replicate number 2, timepoint 0 hours.

Molecules are shown by their SMILES. Where “and” joins values, the source holds several entries; their conditions need not be identical. Equal entries are not always repeated.
Also: unitless GR value; below 1 slowed growth and below 0 cell loss.

Turning to `C[C@@H]1CN(Cc2ccc(F)cc2)CCN1C(=O)COc1ccc(Cl)cc1NC(N)=O` [BX 471 FREE BASE], the “Growth Rate” value in the data set on HEK-293T (setting [1]) is recorded as -0.13; in the data set with HEK-293T (setting [2]), 0.4; in the data set on HEK-293T (setting [3]) it was -0.03; with HEK-293T (setting [4]), 0.27; in the data set on HEK-293T (setting [5]), 0.11; in the data set with HEK-293T (setting [6]), 0.4. For the same molecule, the “Growth Rate” value in the data set with HEK-293T (setting [7]) is listed as 0.18; in the data set on HEK-293T (setting [8]), 0.33; with Fibroblast (setting [9]), 0.82; in the data set with Fibroblast (setting [10]) it was 0.24; in the data set on Fibroblast (setting [1]) it was -0.16; in the data set on Fibroblast (setting [2]), 0.36. In addition, the “Growth Rate” value with Fibroblast (setting [3]) is -0.14; in the data set with Fibroblast (setting [4]), 0.49; with Fibroblast (setting [5]), -0.19; in the data set on Fibroblast (setting [6]) it was 0.85; with Fibroblast (setting [7]), -0.14; with Fibroblast (setting [8]) it was 0.72. The “Growth Rate” value with U2OS (setting [9]) is recorded as -0.96; in the data set on U2OS (setting [10]), -1; with U2OS (setting [2]), 0.94; with U2OS (setting [4]) it was 0.91; with U2OS (setting [6]), 0.79; in the data set with U2OS (setting [8]), 0.89.

With `CSc1cc2c(cc1C(F)(F)F)N(C(=O)Nc1cccnc1)CC2`, the “Growth Rate” value was -0.27 with HEK-293T (setting [10]); 0.82 in the data set with HEK-293T (setting [1]); 0.63 in the data set on HEK-293T (setting [3]); 0.75 with HEK-293T (setting [5]); 0.64 in the data set with HEK-293T (setting [7]); -0.3 in the data set on Fibroblast (setting [9]). In addition, the “Growth Rate” value is 0.46 in the data set with Fibroblast (setting [10]); 0.94 in the data set with U2OS (setting [4]); 0.84 with U2OS (setting [5]); 0.99 in the data set on U2OS (setting [7]); 0.93 with U2OS (setting [8]).

On to `COc1ccc2nc3ccc(OC)cc3c(SCCCN)c2c1.Cl`, for which the “Growth Rate” value was -0.05 in the data set with HEK-293T (setting [9]); -0.25 in the data set with HEK-293T (setting [10]); -0.57 in the data set on HEK-293T (setting [1]); 0.26 with HEK-293T (setting [2]); -0.16 in the data set with HEK-293T (setting [3]); 0.33 in the data set on HEK-293T (setting [4]). Besides, the “Growth Rate” value was 0.19 in the data set with HEK-293T (setting [5]); 0.22 with HEK-293T (setting [6]); 0.28 in the data set on HEK-293T (setting [7]); 0.19 with HEK-293T (setting [8]); 0.15 in the data set on Fibroblast (setting [9]); 0.39 in the data set with Fibroblast (setting [10]). In addition, the “Growth Rate” value in the data set on Fibroblast (setting [1]) is given as 0.94; with U2OS (setting [9]) it was -0.75; in the data set on U2OS (setting [10]), -0.3; with U2OS (setting [3]), 0.7; in the data set on U2OS (setting [4]), 0.2; in the data set with U2OS (setting [5]) it was 0.19. Besides, the “Growth Rate” value with U2OS (setting [6]) came to 0.16; in the data set on U2OS (setting [7]) it was 0.14; in the data set on U2OS (setting [8]), 0.21.

`CC(C)c1cc(Oc2c(Cl)cc(-n3nc(C#N)c(=O)[nH]c3=O)cc2Cl)n[nH]c1=O` [RESMETIROM]: the “Growth Rate” value in the data set with HEK-293T (setting [9]) is recorded as 0.01; in the data set with HEK-293T (setting [10]), 0.23; in the data set on HEK-293T (setting [1]) it was 0.99; in the data set with HEK-293T (setting [3]), 0.77; with HEK-293T (setting [6]) it was 0.96; in the data set with HEK-293T (setting [8]), 0.86. Also, the “Growth Rate” value was -0.06 in the data set with Fibroblast (setting [9]); 0.82 with Fibroblast (setting [10]); 0.58 with Fibroblast (setting [2]); 0.74 with Fibroblast (setting [4]); 0.87 with Fibroblast (setting [6]); 0.85 with Fibroblast (setting [8]). The “Growth Rate” value is 0.87 in the data set on U2OS (setting [9]); 0.06 with U2OS (setting [10]); 0.7 with U2OS (setting [1]); 0.54 in the data set with U2OS (setting [2]); 0.75 in the data set with U2OS (setting [4]); 0.83 in the data set with U2OS (setting [5]). Also, the “Growth Rate” value in the data set on U2OS (setting [6]) is on record as 0.79; in the data set with U2OS (setting [7]) it was 0.99.

`C[N+]1(C)[C@@H]2C[C@@H](OC(=O)C(O)(c3cccs3)c3cccs3)C[C@H]1[C@@H]1O[C@@H]12.O.[Br-]` [TIOTROPIUM BROMIDE]: the “Growth Rate” value with HEK-293T (setting [9]) is given as 0.54; in the data set on HEK-293T (setting [10]), -0.14; with HEK-293T (setting [1]), 0.86; with HEK-293T (setting [3]) it was 0.87; in the data set with HEK-293T (setting [5]), 0.7; with HEK-293T (setting [6]), 0.99. In addition, the “Growth Rate” value is recorded as 0.79 with HEK-293T (setting [7]); 0.91 in the data set on HEK-293T (setting [8]); -0.05 with Fibroblast (setting [10]); -0.47 with Fibroblast (setting [1]); 0.71 in the data set with Fibroblast (setting [3]); 0.99 with Fibroblast (setting [4]). Further, the “Growth Rate” value came out at 1 in the data set with Fibroblast (setting [5]); 0.83 with Fibroblast (setting [6]); 0.95 in the data set with Fibroblast (setting [7]); 0.7 in the data set with Fibroblast (setting [8]); 0.04 with U2OS (setting [9]); 0.9 in the data set on U2OS (setting [10]). Moreover, the “Growth Rate” value in the data set with U2OS (setting [1]) stood at 0.61; with U2OS (setting [2]), 0.93; in the data set with U2OS (setting [3]), 0.64; with U2OS (setting [5]), 0.68; with U2OS (setting [7]), 0.86.

On to `COc1cc(Nc2nc(C)cc(-c3cnn4nc(OC)ccc34)n2)cc(C(F)(F)F)c1`, for which the “Growth Rate” value is 0.76 in the data set with HEK-293T (setting [9]); 0.89 in the data set with HEK-293T (setting [2]); 0.84 with HEK-293T (setting [4]); 0.94 with HEK-293T (setting [6]); 0.85 with HEK-293T (setting [8]); 0.67 and 0.25 in the data set on Fibroblast (setting [6]). In addition, the “Growth Rate” value in the data set with Fibroblast (setting [8]) is 0.58 and 0.24; with U2OS (setting [9]) it was 0.11; in the data set on U2OS (setting [10]) it was 0.84; in the data set with U2OS (setting [1]), 0.24; in the data set with U2OS (setting [2]), 0.89 and 0.77; in the data set with U2OS (setting [3]) it was 0.61 and 0.48. The “Growth Rate” value with U2OS (setting [4]) is 1 and 0.46; in the data set with U2OS (setting [5]), 0.85 and 0.45; with U2OS (setting [6]), 0.62 and 0.36; with U2OS (setting [7]) it was 0.62 and 0.35; with U2OS (setting [8]) it was 0.76 and 0.27.

`Cc1ccc(CNc2ncnc3ccc(-c4ccc(CO)o4)cc23)o1`: the “Growth Rate” value with HEK-293T (setting [9]) is listed as 0.47; in the data set on Fibroblast (setting [9]) it was -0.65; in the data set on Fibroblast (setting [10]), 0.65; in the data set on U2OS (setting [9]), -0.73.

In the case of `Cc1nc(C#Cc2cccnc2)cs1.Cl`, the “Growth Rate” value in the data set with HEK-293T (setting [9]) came out at 0.27; in the data set with HEK-293T (setting [10]), 0.23; with HEK-293T (setting [1]) it was 0.68; in the data set on HEK-293T (setting [3]), 0.63; in the data set on HEK-293T (setting [4]), 0.87; in the data set with HEK-293T (setting [5]), 0.84. Also, the “Growth Rate” value is recorded as 0.94 with HEK-293T (setting [6]); 0.76 in the data set with HEK-293T (setting [7]); 0.73 in the data set with HEK-293T (setting [8]); 0.91 in the data set with Fibroblast (setting [10]); 0.49 in the data set with Fibroblast (setting [1]); 0.58 in the data set on Fibroblast (setting [2]). Also, the “Growth Rate” value in the data set with Fibroblast (setting [3]) is 0.32; with Fibroblast (setting [5]) it was 0.37; with Fibroblast (setting [7]), 0.25; in the data set on U2OS (setting [9]), 0; in the data set with U2OS (setting [10]) it was 0.3; with U2OS (setting [2]), 0.72. Besides, the “Growth Rate” value turned out to be 0.84 in the data set with U2OS (setting [4]) and 0.97 with U2OS (setting [5]).

Consider `CCNC(=O)c1cc2c(-c3cc(C(C)(C)O)ccc3Oc3c(C)cc(F)cc3C)cn(C)c(=O)c2[nH]1` [ABBV-744], for which the “Growth Rate” value in the data set with HEK-293T (setting [9]) is listed as 0.5; in the data set on HEK-293T (setting [10]), 0.16; in the data set with HEK-293T (setting [5]), 0.82; in the data set on HEK-293T (setting [7]) it was 0.69; in the data set on HEK-293T (setting [8]), 0.71; in the data set with Fibroblast (setting [9]) it was 0.23. Also, the “Growth Rate” value with Fibroblast (setting [1]) was found to be 0.41; in the data set on Fibroblast (setting [2]), 0.71; in the data set on Fibroblast (setting [3]), 0.68; with Fibroblast (setting [5]), 0.87; with Fibroblast (setting [7]), 0.75; in the data set on Fibroblast (setting [8]), 0.87. In addition, in the data set with U2OS (setting [7]), the “Growth Rate” value is recorded as -0.17.

On to `CCCCCCCCCCCCC/C=C/[C@@H](O)[C@@H](N)COP(=O)(O)O`, for which the “Growth Rate” value in the data set on HEK-293T (setting [1]) is -0.22; in the data set on HEK-293T (setting [2]), -0.17; in the data set on HEK-293T (setting [3]), 0.04; in the data set on HEK-293T (setting [4]) it was 0.22; in the data set on HEK-293T (setting [5]), 0.27; in the data set with HEK-293T (setting [7]), 0.48. Further, the “Growth Rate” value in the data set on HEK-293T (setting [8]) is given as 0.52; in the data set on Fibroblast (setting [1]) it was -0.68; with Fibroblast (setting [2]), -0.13; in the data set with Fibroblast (setting [3]) it was 0.19; in the data set on Fibroblast (setting [4]), 0.17; in the data set on Fibroblast (setting [5]) it was 0.53. For the same molecule, the “Growth Rate” value in the data set on Fibroblast (setting [7]) is 0.82; in the data set with Fibroblast (setting [8]), 0.63; in the data set with U2OS (setting [10]), 0.31; in the data set with U2OS (setting [3]), 0.95; with U2OS (setting [5]), 0.99; with U2OS (setting [6]), 0.89. Further, the “Growth Rate” value with U2OS (setting [7]) is 0.88; in the data set with U2OS (setting [8]), 0.89.

Values taken from ChEMBL document CHEMBL5058564, “EUbOPEN Chemogenomics Library 2 (Incucyte)” (2022).
